From US20200288710A1, “SUBSTITUTED SULPHONAMIDES FOR CONTROLLING ANIMAL PESTS” (BAYER CROPSCIENCE AKTIENGESELLSCHAFT, priority 2016, published 2020) come the findings set out here.

Assay type in all cases: in vivo
Experiment [1] deals with Myzus persicae. The experiment in a line: Myzus persicae spray test (Chinese cabbage leaf discs). The settings on record: foliar, 120 h, 500 g/ha, after 5-6 days, read-out: efficacy. The essentials:
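Chinese cabbage leaf discs infested with all stages of green peach aphid were sprayed with compound formulated in acetone/DMF and emulsifier-containing water. Efficacy in % was scored after 5-6 days, with 100% meaning all aphids killed and 0% none killed.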

The subject of a further experiment is Lucilia cuprina. The experiment in a line: Lucilia cuprina test. The conditions noted are these: 48 h, L1 larvae, after 2 days, read-out: efficacy (kill in %). The protocol:
Lucilia cuprina Test Solvent: dimethyl sulphoxide To produce a suitable preparation of active compound, 10 mg of active compound are mixed with 0.5 ml of dimethyl sulphoxide, and the concentrate is diluted with water to the desired concentration. About 20 L1 larvae of the Australian sheep blowfly (Lucilia cuprina) are transferred into a test vessel containing minced horsemeat and the active compound preparation of the desired concentration. After 2 days, the kill in % is determined. 100% means that all the larvae have been killed; 0% means that no larvae have been killed.

In experiment [2] the test system is Myzus persicae. The experiment in a line: Myzus persicae oral test. The settings on record: 120 h, oral uptake, after 5 days, read-out: efficacy. The essentials:
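Compound dissolved in acetone, diluted in water, then mixed 50:150 μl with IPL41 insect medium (33%+15% sugar). Mixed-population green peach aphids feed through a parafilm seal on the solution; mortality scored as % efficacy after 5 days (100% = all killed).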

A further experiment has as its system Meloidogyne incognita. Nature of the experiment: Meloidogyne incognita test. The conditions noted are these: 336 h, lettuce, after 14 days, read-out: nematicidal efficacy (formation of galls). The essentials: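 Active compound in acetone, diluted with water, added to sand-filled vessels with M. incognita eggs/larvae and lettuce seeds. After 14 days, efficacy scored by root gall formation: 100% = no galls, 0% = galls equal to untreated control.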

The subject of another experiment is Phaedon cochleariae. Nature of the experiment: Phaedon cochleariae spray test. The settings on record: foliar, 168 h, Chinese cabbage leaf discs, larvae, after 7 days, read-out: efficacy. The essentials:
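Compound dissolved in solvent and diluted with water containing 1000 ppm emulsifier to test concentrations. Efficacy read after 7 days as % beetle larvae killed (100% all killed, 0% none).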

Molecules are shown by their SMILES.

Turning to `COc1ccc(Br)cc1S(=O)(=O)NC(=O)c1cn(C)c(-c2c(F)cccc2F)n1` [Example 18], the pest or weed control at 500 g/ha with Myzus persicae [1] and in the experiment with Phaedon cochleariae was 100% in each case. In addition, the pest or weed control at 100 ppm in the experiment with Lucilia cuprina came to 100%. For the same compound, the results for the pest or weed control at 20 ppm with Myzus persicae [2] and in the experiment on Meloidogyne incognita were 100% and 90%, respectively.
On to `Cn1cc(C(=O)NS(=O)(=O)c2ccccc2C(F)(F)F)nc1-c1c(Cl)cccc1Cl` [Example 23], for which the pest or weed control at 500 g/ha in the experiment with Myzus persicae [1] and in the experiment with Phaedon cochleariae was 100% each time. The pest or weed control at 100 ppm in the experiment with Lucilia cuprina came to 100%. Also, in the experiment on Myzus persicae [2], the pest or weed control at 20 ppm turned out to be 100%.
Turning to `Cc1ccccc1S(=O)(=O)NC(=O)c1cn(C)c(-c2c(Cl)cccc2Cl)n1` [Example 25], the pest or weed control at 500 g/ha with Myzus persicae [1] was 100%. Also, the pest or weed control at 100 ppm with Lucilia cuprina turned out to be 100%. In the experiment with Myzus persicae [2], the pest or weed control at 20 ppm worked out at 100%.
As for `Cc1ccccc1S(=O)(=O)NC(=O)c1cn(C)c(-c2c(F)cccc2F)n1` [Example 27], the pest or weed control at 500 g/ha with Myzus persicae [1] and with Phaedon cochleariae was 100% throughout. In addition, the pest or weed control at 100 ppm in the experiment with Lucilia cuprina worked out at 100%. The pest or weed control at 20 ppm was 100% with Myzus persicae [2] and 90% in the experiment on Meloidogyne incognita.
In the case of `Cn1cc(C(=O)NS(=O)(=O)c2ccccc2Br)nc1-c1ccccc1Cl` [Example 36], the pest or weed control at 500 g/ha in the experiment on Myzus persicae [1] and with Phaedon cochleariae was 100% in each case. Besides, the pest or weed control at 100 ppm with Lucilia cuprina was 100%. The pest or weed control at 20 ppm with Myzus persicae [2] and with Meloidogyne incognita was 100% throughout.
On to `Cc1ccc(Cl)cc1S(=O)(=O)NC(=O)c1cn(C)c(-c2ccccc2Cl)n1` [Example 37], for which the pest or weed control at 500 g/ha was 90% in the experiment on Myzus persicae [1] and 100% in the experiment with Phaedon cochleariae. Moreover, in the experiment with Lucilia cuprina, the pest or weed control at 100 ppm is 100%. Besides, the pest or weed control at 20 ppm with Myzus persicae [2] and in the experiment on Meloidogyne incognita was 100% each time.
As for `Cc1ccccc1S(=O)(=O)NC(=O)c1cn(C)c(-c2ccccc2Cl)n1` [Example 54], the pest or weed control at 500 g/ha with Myzus persicae [1] came out at 100%. The pest or weed control at 100 ppm in the experiment on Lucilia cuprina was found to be 100%. Moreover, the pest or weed control at 20 ppm in the experiment on Myzus persicae [2] and in the experiment on Meloidogyne incognita was 100% throughout.
Regarding `Cn1cc(C(=O)NS(=O)(=O)c2cc(Cl)ccc2Cl)nc1-c1ccccc1Cl` [Example 56], the pest or weed control at 500 g/ha with Myzus persicae [1] and in the experiment on Phaedon cochleariae was 100% throughout. Also, the pest or weed control at 100 ppm with Lucilia cuprina came out at 100%. For the same compound, the pest or weed control at 20 ppm was 100% in the experiment with Myzus persicae [2] and 90% in the experiment with Meloidogyne incognita.
Regarding `COc1ccc(Cl)c(S(=O)(=O)NC(=O)c2cn(C)c(-c3c(F)cccc3F)n2)c1` [Example 92], in the experiment on Myzus persicae [1], the pest or weed control at 500 g/ha worked out at 100%. For the same compound, in the experiment with Lucilia cuprina, the pest or weed control at 100 ppm turned out to be 95%. For the same compound, in the experiment on Myzus persicae [2], the pest or weed control at 20 ppm was 100%.
For `Cn1cc(C(=O)NS(=O)(=O)c2c(Cl)cccc2Cl)nc1-c1c(Cl)cccc1Cl` [Example 102], the pest or weed control at 500 g/ha in the experiment on Myzus persicae [1] and in the experiment on Phaedon cochleariae was 100% each time. The pest or weed control at 100 ppm in the experiment with Lucilia cuprina was determined as 100%. Also, the pest or weed control at 20 ppm in the experiment on Myzus persicae [2] was found to be 100%; in the experiment with Meloidogyne incognita, 90%.
Take `Cn1cc(C(=O)NS(=O)(=O)c2c(Cl)cccc2Cl)nc1-c1c(F)cccc1Cl` [Example 108]: the pest or weed control at 500 g/ha in the experiment on Myzus persicae [1] and in the experiment with Phaedon cochleariae was 100% each time. Also, in the experiment with Lucilia cuprina, the pest or weed control at 100 ppm came to 95%. Further, the pest or weed control at 20 ppm in the experiment on Myzus persicae [2] is 100%; with Meloidogyne incognita it was 90%.
Regarding `Cn1cc(C(=O)NS(=O)(=O)c2ccccc2C(F)(F)F)nc1-c1c(F)cccc1Cl` [Example 109], the pest or weed control at 500 g/ha in the experiment with Myzus persicae [1] was determined as 100%. Moreover, the pest or weed control at 100 ppm with Lucilia cuprina amounted to 100%. Also, the pest or weed control at 20 ppm in the experiment with Myzus persicae [2] turned out to be 100%; with Meloidogyne incognita, 90%.
On to `Cn1cc(C(=O)NS(=O)(=O)c2ccccc2I)nc1-c1c(F)cccc1F` [Example 120], for which the pest or weed control at 500 g/ha in the experiment on Myzus persicae [1] and with Phaedon cochleariae was 100% throughout. In addition, the pest or weed control at 100 ppm in the experiment on Lucilia cuprina was 100%. The pest or weed control at 20 ppm with Myzus persicae [2] stood at 100%; with Meloidogyne incognita, 90%.
Turning to `Cc1cccc(C)c1S(=O)(=O)NC(=O)c1cn(C)c(-c2ccccc2Cl)n1` [Example 218], the pest or weed control at 500 g/ha with Myzus persicae [1] and with Phaedon cochleariae was 100% throughout. Moreover, the pest or weed control at 100 ppm with Lucilia cuprina was found to be 100%. Also, the pest or weed control at 20 ppm with Myzus persicae [2] was 100%; in the experiment on Meloidogyne incognita, 90%.
Turning to `Cc1ccccc1S(=O)(=O)NC(=O)c1cc(C)n(-c2ncccc2Cl)n1` [Example 274], the pest or weed control at 500 g/ha in the experiment with Myzus persicae [1] amounted to 100%. The pest or weed control at 100 ppm in the experiment with Lucilia cuprina was 95%. The pest or weed control at 20 ppm turned out to be 100% in the experiment with Myzus persicae [2] and 90% with Meloidogyne incognita.
As to `COc1cc(S(=O)(=O)NC(=O)c2cn(C)c(-c3c(F)cccc3F)n2)c(C)cc1Br` [Example 285], the pest or weed control at 500 g/ha in the experiment with Myzus persicae [1] was 90%; with Phaedon cochleariae it was 100%. Also, the pest or weed control at 100 ppm with Lucilia cuprina came out at 100%. Further, the pest or weed control at 20 ppm in the experiment on Myzus persicae [2] and in the experiment with Meloidogyne incognita was 100% each time.
`CCc1cccc(C)c1S(=O)(=O)NC(=O)c1cn(C)c(-c2c(F)cccc2F)n1` [Example 336]: the results for the pest or weed control at 500 g/ha with Myzus persicae [1] and with Phaedon cochleariae were 90% and 100%, respectively. Moreover, the pest or weed control at 100 ppm in the experiment with Lucilia cuprina was 95%. The pest or weed control at 20 ppm in the experiment on Myzus persicae [2] and in the experiment with Meloidogyne incognita was 100% in each case.
As to `CSc1ccccc1S(=O)(=O)NC(=O)c1cn(C)c(-c2c(F)cccc2F)n1` [Example 383], the pest or weed control at 500 g/ha in the experiment on Myzus persicae [1] and with Phaedon cochleariae was 100% throughout. For the same compound, the pest or weed control at 100 ppm in the experiment on Lucilia cuprina turned out to be 100%. In the experiment on Myzus persicae [2], the pest or weed control at 20 ppm came to 100%.
With `Cn1cc(C(=O)NS(=O)(=O)c2ccccc2Cl)nc1-c1ncccc1Cl` [Example 539], in the experiment with Myzus persicae [1], the pest or weed control at 500 g/ha came out at 90%. The pest or weed control at 100 ppm in the experiment on Lucilia cuprina worked out at 100%. In addition, the pest or weed control at 20 ppm with Myzus persicae [2] came to 100%.
For the compound `CCc1ccccc1S(=O)(=O)NC(=O)c1cn(C)c(-c2ncccc2F)n1` [Example 572], the pest or weed control at 500 g/ha in the experiment on Myzus persicae [1] came out at 100%; in the experiment on Phaedon cochleariae it was 83%. Further, the pest or weed control at 100 ppm with Lucilia cuprina came to 100%. The pest or weed control at 20 ppm in the experiment on Myzus persicae [2] worked out at 100%.
As for `CCc1ccccc1S(=O)(=O)NC(=O)c1cn(C)c(-c2ncccc2Cl)n1` [Example 581], the pest or weed control at 500 g/ha in the experiment on Myzus persicae [1] and in the experiment with Phaedon cochleariae was 100% each time. Moreover, in the experiment on Myzus persicae [2], the pest or weed control at 4 ppm worked out at 100%. The pest or weed control at 20 ppm in the experiment with Meloidogyne incognita turned out to be 100%.
As to `CCc1ccc(Cl)cc1S(=O)(=O)NC(=O)c1cn(C)c(-c2ncccc2Cl)n1` [Example 583], the pest or weed control at 500 g/ha in the experiment on Myzus persicae [1] and with Phaedon cochleariae was 100% each time. Further, the values for the pest or weed control at 20 ppm in the experiment with Myzus persicae [2] and in the experiment with Meloidogyne incognita were 100% and 90%, respectively.
In the case of `Cc1cccc(C(F)(F)F)c1S(=O)(=O)NC(=O)c1cn(C)c(-c2ncccc2Cl)n1` [Example 586], the pest or weed control at 500 g/ha with Myzus persicae [1] and in the experiment with Phaedon cochleariae was 100% throughout. Besides, the pest or weed control at 4 ppm with Myzus persicae [2] amounted to 100%. Further, the pest or weed control at 20 ppm in the experiment on Meloidogyne incognita was determined as 90%.
Consider `Cc1cccc(C)c1S(=O)(=O)NC(=O)c1cn(C)c(-c2ncccc2Cl)n1` [Example 587], for which the pest or weed control at 500 g/ha worked out at 90% in the experiment on Myzus persicae [1] and 100% in the experiment on Phaedon cochleariae. Moreover, the pest or weed control at 20 ppm in the experiment with Myzus persicae [2] is 100%; in the experiment on Meloidogyne incognita, 90%.
Turning to `COc1ccc(Br)c(S(=O)(=O)NC(=O)c2cn(C)c(-c3ncccc3Cl)n2)c1` [Example 597], the pest or weed control at 500 g/ha with Myzus persicae [1] and with Phaedon cochleariae was 100% each time. In addition, the values for the pest or weed control at 20 ppm in the experiment on Myzus persicae [2] and with Meloidogyne incognita were 100% and 90%, respectively.
Take `Cc1cccc(Cl)c1S(=O)(=O)NC(=O)c1cn(C)c(-c2ncccc2F)n1` [Example 599]: the pest or weed control at 500 g/ha in the experiment with Myzus persicae [1] and in the experiment with Phaedon cochleariae was 100% each time. Besides, the pest or weed control at 20 ppm in the experiment on Myzus persicae [2] and in the experiment with Meloidogyne incognita was 100% throughout.
As to `Cc1cccc(C)c1S(=O)(=O)NC(=O)c1cn(C)c(-c2ncccc2F)n1` [Example 602], the pest or weed control at 500 g/ha in the experiment on Myzus persicae [1] is 90%; in the experiment on Phaedon cochleariae it was 83%. Also, the figures for the pest or weed control at 20 ppm with Myzus persicae [2] and with Meloidogyne incognita were 100% and 90%, respectively.
`CCc1ccc(Cl)cc1S(=O)(=O)NC(=O)c1cn(C)c(-c2ncccc2F)n1` [Example 603]: the figures for the pest or weed control at 500 g/ha in the experiment with Myzus persicae [1] and in the experiment with Phaedon cochleariae were 90% and 100%, respectively. For the same compound, the figures for the pest or weed control at 20 ppm in the experiment with Myzus persicae [2] and in the experiment on Meloidogyne incognita were 100% and 90%, respectively.
